Laboratory results taken from patent US20180251847A1, “METHOD OF PREDICTING THE TUMOR RESPONSE TO DNA METHYLATION INHIBITORS AND ALTERNATIVE THERAPEUTIC REGIMEN FOR OVERCOMING RESISTANCE” (PALACKY UNIVERSITY, OLOMOUC, priority 2014, published 2018).
Where a name gives a salt, the structure may show the parent alone. Read-outs that look alike come from different tables or passages of the source.

Tests used:
Parameters in all cases: species or system human
R1.2 (HCT116-RDAC) = test: MTT based cell survival assay, DAC resistant HCT116 clone R1.2; conditions: for IC50: read-out: Mean IC50; for fold change (resistance index): IC50 R1.2 / IC50 HCT116
Procedure: (§1) The DAC resistant HCT116 cell lines were developed using two methods.
(§2) The method is primarily based on reduction of yellow colored tetrazolium salt, 3-(4,5-dimethylthiazol-2-yl)-2,5-diphenyltetrazolium bromide (MTT) to insoluble purple colored formazan crystals by NAD(P)H-dependent oxidoreductase enzymes in mitochondria of the viable cell.
(§3) Cells in 80 μL of medium were plated in each of the experimental and the control wells, followed by addition of 20 μL medium with five-fold drug concentration to experimental wells. The wells with medium alone were included alongside as blank for absorbance readings. After 72 h of drug treatment, 10 μL MTT (Sigma-Aldrich) prepared in 1×PBS (5 mg/mL) was added to all wells including blank and control, and incubated until the purple formazan crystals were visible after which 100 μL of detergent (10% SDS, pH: 5.5) was added and the plates were incubated overnight to solubilize the formazan and the cellular material.
(§4) Cross resistance was determined as the fold increase, whereas, the sensitivity was determined as the fold decrease in the IC50 of the drugs for the resistant cell lines compared to their genetically identical drug sensitive counterpart.

R2.1 (HCT116-RDAC) = test: MTT based cell survival assay, DAC resistant HCT116 clone R2.1; conditions: for IC50: R2.1, MTT, 72 h drug treatment; for fold change (resistance index): IC50 R2.1 / IC50 HCT116
Procedure: as §1, §2, §3, §4

R1.4 (HCT116-RDAC) = test: MTT based cell survival assay, DAC resistant HCT116 clone R1.4; conditions: for IC50: read-out: Mean IC50; for fold change (resistance index): IC50 R1.4 / IC50 HCT116
Procedure: as §1, §2, §3, §4

R2.2 (HCT116-RDAC) = test: MTT based cell survival assay, DAC resistant HCT116 clone R2.2; conditions: for IC50: read-out: Mean IC50; for fold change (resistance index): IC50 R2.2 / IC50 HCT116
Procedure: as §1, §2, §3, §4

R1.3 (HCT116-RDAC) = test: MTT based cell survival assay, DAC resistant HCT116 clone R1.3; conditions: for IC50: read-out: Mean IC50; for fold change (resistance index): IC50 R1.3 / IC50 HCT116
Procedure: as §1, §2, §3, §4

HCT116 = test: MTT based cell survival assay, parental HCT116; conditions: read-out: Mean IC50
Procedure: To study the mechanism of resistance towards DNA methylation inhibitor, 2′-deoxy-5-azacytidine, we used the human colorectal cancer cell line (HCT116), human promyelocytic leukemia cells (HL-60), and human breast adenocarcinoma cell line (MCF-7) obtained from American Type Culture Collection (Manassas, Va.). The cell lines were cultured in complete growth media (Sigma-Aldrich, St. Louis, Mo.), supplemented with fetal bovine serum (FBS, PAN-Biotech GmbH, Aidenbach, Germany), 100 U/mL penicillin (Biotika, Slovenská L'upča, Slovak Republic) and 50 μg/mL streptomycin (Sigma-Aldrich), and the cultures were maintained at 37° C. and 5% CO2, in a humidified incubator. The cell line, HCT116 was grown in McCoy's 5 A medium supplemented with 10% FBS and 3 mM L-glutamine (Sigma-Aldrich), HL-60 was grown in Iscove's Modified Dulbecco's Medium with 20% FBS, and MCF-7 was grown in RPMI-1640 medium with 10% FBS.
The method is primarily based on reduction of yellow colored tetrazolium salt, 3-(4,5-dimethylthiazol-2-yl)-2,5-diphenyltetrazolium bromide (MTT) to insoluble purple colored formazan crystals by NAD(P)H-dependent oxidoreductase enzymes in mitochondria of the viable cell. The intensity of the purple color produced on solubilization of the formazan crystals is directly proportional to the number of viable cells (Meerloo J. V. et al., Methods in Molecular Biology 2011; 731, 237-45).
as §3, with “To determine the IC50 of the epigenetic drugs (Tocris Bioscience, Bristol, United Kingdom), four independent experiments were performed using triplicate wells of 96 well plates. Cells” for “Cells”, “[…],” for “After 72 h of drug treatment,”
as §4

R1.1 (HCT116-RDAC) = test: MTT based cell survival assay, DAC resistant HCT116 clone R1.1; conditions: for IC50: read-out: Mean IC50; for fold change (resistance index): IC50 R1.1 / IC50 HCT116
Procedure: as §1, §2, §3, §4

[1] = Homo sapiens, HCT-116, R1.2, MTT, 72 h drug treatment
[2] = Homo sapiens, HCT-116, R1.4, MTT, 72 h drug treatment
[3] = Homo sapiens, HCT-116, R2.2, MTT, 72 h drug treatment
[4] = Homo sapiens, HCT-116, R1.3, MTT, 72 h drug treatment
[5] = Homo sapiens, HCT-116, HCT116 parental, MTT, 72 h drug treatment
[6] = Homo sapiens, HCT-116, R1.1, MTT, 72 h drug treatment
[7] = HCT116 parental, MTT, 72 h drug treatment

Row | Compound | fold change (resistance index) (R1.2 (HCT116-RDAC)) | IC50 (R2.1 (HCT116-RDAC); Homo sapiens, HCT-116) | fold change (resistance index) (R2.1 (HCT116-RDAC)) | fold change (resistance index) (R1.4 (HCT116-RDAC)) | fold change (resistance index) (R2.2 (HCT116-RDAC)) | fold change (resistance index) (R1.3 (HCT116-RDAC)) | fold change (resistance index) (R1.1 (HCT116-RDAC)) | IC50 (R1.2 (HCT116-RDAC); R1.2, MTT, 72 h drug treatment) | IC50 (R2.1 (HCT116-RDAC)) | IC50 (R1.4 (HCT116-RDAC); R1.4, MTT, 72 h drug treatment) | IC50 (R2.2 (HCT116-RDAC); R2.2, MTT, 72 h drug treatment) | IC50 (R1.3 (HCT116-RDAC); R1.3, MTT, 72 h drug treatment) | IC50 (HCT116; [7]) | IC50 (R1.1 (HCT116-RDAC); R1.1, MTT, 72 h drug treatment) | further results
1 | Nc1ncn([C@@H]2O[C@H](CO)[C@@H](O)[C@H]2O)c(=O)n1 [AZA, 5-azacytidine] | (3.87) fold | 12.3 µM | (4.07) fold | (4.92) fold | (4.19) fold | (3.50) fold | (3.10) fold |  |  |  |  |  |  |  | IC50 (R1.2 (HCT116-RDAC); [1]): 11.7 µM; IC50 (R1.4 (HCT116-RDAC); [2]): 14.9 µM; IC50 (R2.2 (HCT116-RDAC); [3]): 14.5 µM; IC50 (R1.3 (HCT116-RDAC); [4]): 10.6 µM; IC50 (HCT116; [5]): 3.02 µM; IC50 (R1.1 (HCT116-RDAC); [6]): 9.36 µM
2 | CCCCCCCCCCCCCCCc1cccc(O)c1C(=O)O [Ancardic acid, Anacardic acid] | (1.06) fold |  | (1.03) fold | (1.02) fold | (1.04) fold | (1.04) fold | (1.07) fold | 127 µM | 124 µM | 122 µM | 125 µM | 125 µM | 120 µM | 128 µM | 
3 | COc1cc2nc(N3CCCN(C)CC3)nc(NC3CCN(Cc4ccccc4)CC3)c2cc1OC [BIX-01294] | (1.19) fold | 3.4 µM | (1.33) fold | (1.20) fold | (1.26) fold | (1.16) fold | (1.17) fold |  |  |  |  |  |  |  | IC50 (R1.2 (HCT116-RDAC); [1]): 3.02 µM; IC50 (R1.4 (HCT116-RDAC); [2]): 3.05 µM; IC50 (R2.2 (HCT116-RDAC); [3]): 3.22 µM; IC50 (R1.3 (HCT116-RDAC); [4]): 2.97 µM; IC50 (HCT116; [5]): 2.55 µM; IC50 (R1.1 (HCT116-RDAC); [6]): 3 µM
4 | CC1=NN(c2ccc(C(=O)O)cc2)C(=O)/C1=C\c1ccc(-c2cc(C)c(C)cc2[N+](=O)[O-])o1 [C646] | (1.51) fold |  | (1.52) fold | (1.53) fold | (1.64) fold | (1.42) fold | (1.35) fold | 50.6 µM | 51 µM | 51.3 µM | 55 µM | 47.5 µM | 33.5 µM | 45.1 µM | 
5 | Cl.Nc1nccc2c1ncn2[C@@H]1C=C(CO)[C@@H](O)[C@H]1O [DZNep, 3-Deazaneplanocin A hydrochloride] | (30.34) fold |  | (30.34) fold | (30.34) fold | (30.34) fold | (30.34) fold | (30.34) fold |  |  |  |  |  | 0.82 µM |  | 
6 | CCOC(=O)CCNc1cc(N2CCc3ccccc3CC2)nc(-c2ccccn2)n1 [GSK J4] | (1.30) fold |  | (2.11) fold | (1.34) fold | (1.87) fold | (1.39) fold | (1.52) fold | 2.95 µM | 4.81 µM | 3.05 µM | 4.25 µM | 3.18 µM | 2.28 µM | 3.45 µM | 
7 | COc1cc2c(cc1-c1c(C)noc1C)ncc1[nH]c(=O)n([C@H](C)c3ccccn3)c12 [I-BET 151, I-BET 151 hydrochloride] |  | 3.16 µM |  |  |  |  |  |  |  |  |  |  |  |  | IC50 (R1.2 (HCT116-RDAC); Homo sapiens, HCT-116, 72 h): 5.18 µM; fold change (sensitivity index) (R1.2 (HCT116-RDAC); IC50 HCT116 / IC50 R1.2): (1.01) fold; fold change (sensitivity index) (R2.1 (HCT116-RDAC); IC50 HCT116 / IC50 R2.1): (1.65) fold; IC50 (R1.4 (HCT116-RDAC); Homo sapiens, HCT-116, 72 h): 3.58 µM; fold change (sensitivity index) (R1.4 (HCT116-RDAC); IC50 HCT116 / IC50 R1.4): (1.46) fold; IC50 (R2.2 (HCT116-RDAC); Homo sapiens, HCT-116, 72 h): 5.4 µM; fold change (sensitivity index) (R2.2 (HCT116-RDAC); IC50 HCT116 / IC50 R2.2): (0.97) fold; IC50 (R1.3 (HCT116-RDAC); Homo sapiens, HCT-116, 72 h): 1.6 µM; fold change (sensitivity index) (R1.3 (HCT116-RDAC); IC50 HCT116 / IC50 R1.3): (3.28) fold; IC50 (HCT116; Homo sapiens, HCT-116, 72 h): 5.23 µM; IC50 (R1.1 (HCT116-RDAC); Homo sapiens, HCT-116, 72 h): 2.68 µM; fold change (sensitivity index) (R1.1 (HCT116-RDAC); IC50 HCT116 / IC50 R1.1): (1.95) fold
8 | O=C(O)c1ccc(O)c2ncccc12 [IOX1] | (2.15) fold |  | (1.70) fold | (1.96) fold | (1.93) fold | (1.80) fold | (1.41) fold | 63.6 µM | 50.2 µM | 58.1 µM | 57 µM | 53.2 µM | 29.6 µM | 41.6 µM | 
9 | C/C=C1\NC(=O)[C@H]2CSSCC/C=C/[C@H](CC(=O)N[C@H](C(C)C)C(=O)N2)OC(=O)[C@H](C(C)C)NC1=O [Romidepsin] | (1.77) fold | 0.0054 µM | (1.95) fold | (1.14) fold | (2.64) fold | (1.18) fold | (1.14) fold |  |  |  |  |  |  |  | IC50 (R1.2 (HCT116-RDAC); Homo sapiens, HCT-116, 72 h): 0.0049 µM; IC50 (R1.4 (HCT116-RDAC); Homo sapiens, HCT-116, 72 h): 0.0031 µM; IC50 (R2.2 (HCT116-RDAC); Homo sapiens, HCT-116, 72 h): 0.0073 µM; IC50 (R1.3 (HCT116-RDAC); Homo sapiens, HCT-116, 72 h): 0.0033 µM; IC50 (HCT116; Homo sapiens, HCT-116, 72 h): 0.0028 µM; IC50 (R1.1 (HCT116-RDAC); Homo sapiens, HCT-116, 72 h): 0.0031 µM
